In data set [1] the test system is Aβ42 mediated toxicity in mouse neuroblastoma (N2a) cells. The data set is described as follows: Aβ42 mediated toxicity in Neuro-2a cells (MTS cell viability). The class given is cell-based. To be noted: for cell viability: 5 μM Aβ42, equimolar ratio, 72 h; for effect on Aβ42 mediated cytotoxicity: equimolar ratio, Neuro-2a cells. The procedure:
Cell viability was determined using a CellTiter 96® AQueous One Solution Cell Proliferation Assay (MTS) kit (Promega), which measures the reduction of the tetrazolium compound MTS (3-(4,5-dimethylthiazol-2-yl)-5-(3-carboxymethoxyphenyl)-2-(4-sulfophenyl)-2H-tetrazolium, inner salt) to soluble formazan by mitochondrial dehydrogenase enzyme in living cells. Formazan can be measured at 490 nm according to the manufacturer's instructions.
Neuro-2a cells (ATCC® […]) were maintained in serum-containing media [Dulbecco's Modified Eagle's Medium—high glucose (DMEM, Sigma) supplemented with 10% foetal bovine serum (FBS), 4 mM L-Glutamine (Sigma), and 1% penicillin/streptomycin (Sigma)] in 5% CO2 at 37° C. Once the cells reached ˜95% confluence, they were split (using 0.25% trypsin-EDTA, Sigma, St. Louis, USA), seeded at a density of 5×10^3 cells/well in 100 μL complete medium in 96-well plates and cultured for 48 h. Thereafter, the media was removed, the cells washed with phosphate buffered saline (PBS), and 90 μL of serum-free DMEM was added to the wells. A solution (A) containing 50 μM Aβ42 in NaOH (pH 10.5) was prepared and kept on ice, and a solution (B) containing 50 μM of the oligopyridylamide compound, H2O (2.33 μL/well) and 1× and 10×PBS was prepared and kept at room temperature. The solutions were combined, vortexed and 10 μL of this solution immeadiatly added to each well. The final concentrations in the wells were: 5 μM Aβ42, 5 μM oligopyridylamide, 200 μM NaOH, 0.1×PBS and 0.5% (v/v) DMSO.
To investigate the toxic effect of the peptide alone on cell viability, solution (B) without the oligopyridylamide compound was mixed with solution (A), while the effect of the oligopyridylamide compound alone was determined by adding solution (A) without peptide to solution (B). The effect of oligopyridylamides on seed-catalyzed Aβ42 aggregation was probed by preparing an additional solution (C) containing 0.5 μM seeds. The volume contributed by solution (C) was taken into account in preparing solution (B). Solution (C) was mixed with solution (B), and the resulting mixture was then added to solution (A) shortly before addition to the wells. To study the effect of oligopyridylamides on the oligomeric states of Aβ42, solution (A) was mixed with solution (B) without inhibitor and incubated at room temperature for 1, 2 or 3 h. Subsequently, 50 μM oligopyridylamides was added to the mixture, which was then immediately added to the cells. After culturing for 72 h in 5% CO2 at 37° C., 20 μL of MTS reagent was added to each well. The MTS reagent was incubated for 2.5 h at 37° C., and absorbance of the soluble formazan product (λ=490 nm) of MTS reduction was measured on a Synergy H1MF Multi-Mode microplate-reader (BioTek, Winooski, Vt., USA), with a reference wavelength of 650 nm to subtract the background. Wells treated with a solution containing serum-free DMEM, 200 μM NaOH, 0.1×PBS and 0.5% (v/v) DMSO served as control. MTS reduction was determined from the ratio of the absorbance of the treated wells to the control wells. Each data point represents an average of four independent quadruplet-well trials.

The target of a further data set is T1, Aβ40 (Homo sapiens, UniProt P05067).
T1 construct: Cleavage of APP results in several Aβ isoforms; The predominant species are Aβ42 and Aβ40; purchased Anaspec (Fremont, Calif., USA)
The experiment in a line: ThT-based kinetic assay of Aβ40 aggregation. It counts as biochemical. To be noted: equimolar ratio. As for the experimental part: Kinetic assays were conducted on a FlexStation 3 Multi-Mode Microplate reader from Molecular Devices (Sunnyvale, Calif., USA). Experiments were conducted in triplicate in a 96-well plate with a final volume of 200 μL per well. Every measurement was an average of 50 readings. The aggregation of an amyloidogenic peptide (Aβ40, Aβ42, or IAPP) was initiated by the addition of the peptide from a stock solution (in DMSO, 0.5-1 mM) to phosphate buffer. The final concentration of each peptide was different based on their aggregation. The stoichiometry of ThT dye for each peptide was 0.5:1 (ThT:peptide). Peptide aggregation was monitored by ThT fluorescence (λex=445 nm and λem=485 nm). The blank sample contained all the components of the peptide samples except the peptide. The sample data were processed by subtracting the fluorescence of the blank sample. The fluorescence intensity data was then normalized by setting the maximum value to 1.
Kinetic assays in the presence of the compounds of the invention were conducted under the same conditions. The small molecules were added from a stock solution (1 mM or 10 mM in DMSO) to keep the final concentration of DMSO less than 1.0% (v/v). […]
Kinetic profiles were processed using Origin (version 9.1). […] Each run was fit independently to extract the t50 (time required to reach 50% of the maximum fluorescence intensity). […]

Data set [2] is described as follows: DLS and UV-Vis probe of colloidal aggregation of the compound. It counts as physicochemical. As for the experimental part: UV-Vis was employed to probe the chemical aggregation of ADH-41 under kinetic assay conditions. The measurements were carried out on a double beam Carry 100 Bio spectrophotometer (Agilent Technologies, Santa Clara, Calif.) controlled by Cary WinUV software (version=3.0).
Dynamic light scattering (DLS) and ultraviolet-visible (UV-Vis) spectroscopy was employed to probe the micelle forming capacity of ADH-41.

The target in a further data set is T2, Aβ42 (Homo sapiens, UniProt P05067).
T2 construct: Cleavage of APP results in several Aβ isoforms; The predominant species are Aβ42 and Aβ40; purchased Anaspec (Fremont, Calif., USA)
The experiment in a line: Dynamic light scattering of Aβ42 species. The class given is biochemical. As for the experimental part:
The particle size distribution of 5 μM Aβ42 increased from a range of hydrodynamic radii of 40-80 nm to 100-500 nm after incubation for 24 h (FIG. 4a).

A further data set addresses T3, Aβ12-28 (Homo sapiens, UniProt P05067).
T3 construct: Aβ12-28, a well-characterized subdomain of Aβ42; purchased Anaspec (Fremont, Calif., USA)
The data set is described as follows: Circular dichroism (CD) spectroscopy of Aβ12-28. It counts as biochemical. To be noted: Aβ12-28, 20% TFE, equimolar ratio. (In general: Circular dichroism is widely used to follow secondary structure.)

Where [3] appears, read: compound added to 5 μM Aβ42 after 1 h from start of amyloid reaction, Aβ42 alone 46%.
Setting [4] is: compound added to 5 μM Aβ42 after 2 h from start of amyloid reaction, Aβ42 alone 57%.
The mark [5] stands for this setting: compound added to 5 μM Aβ42 after 3 h from start of amyloid reaction, Aβ42 alone 62%.

Entries after “also recorded” stand apart in the source; their conditions may differ.

One may read the cell viability as a read-out of living cells in per cent, often relative to untreated cells.

T2 sequence (P05067 672-713 limits assumed): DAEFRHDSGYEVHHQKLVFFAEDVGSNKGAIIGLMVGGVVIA
T1 sequence (P05067 672-711 limits assumed): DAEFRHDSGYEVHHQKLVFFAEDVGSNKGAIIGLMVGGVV

For the compound `COC(=O)c1ccc(NC(=O)c2ccc(NC(=O)c3ccc(NC(=O)c4ccc([N+](=O)[O-])c(OCC(C)C)n4)c(OCc4ccccc4)n3)c(OCC(=O)O)n2)c(OCC(=O)O)n1` [ADH-31], the cell viability in data set [1] is 97%±1%. Besides, the figures for the “cell viability, preformed Aβ42 oligomers” value in data set [1] (setting [3]), in data set [1] (setting [4]) and in data set [1] (setting [5]) were 90%, 89% and 95%, respectively. In addition, in data set [1], the “effect on Aβ42 mediated cytotoxicity” value is listed as “effective at rescuing cells”.
In the case of `COC(=O)c1ccc(NC(=O)c2ccc(NC(=O)c3ccc([N+](=O)[O-])c(OCc4ccccc4)n3)c(OCCCN)n2)c(OCCCN)n1` [ADH-41], at Aβ40, the “effect on Aβ40 aggregation (ThT)” value is “decreased significantly; also recorded: completely arrested”. Further, the “concentration range over which absorbance is linear” value in data set [2] (absorbance at 351 nm, phosphate buffer pH 7.4) is 10 to 100 µM. Further, the “diameter (from volume) of compound particles by DLS” value in data set [2] (phosphate buffer (150 mM KCl, 50 mM NaPi, pH 7.4), 20° C.) is on record as “below 10 nm”. Moreover, the “hydrodynamic radii of Aβ42 particles” value on Aβ42 (5 μM Aβ42, equimolar ratio, 24 h incubation) was 50-100 nm. Also, the “change in particle size of Aβ42-ADH-41 complex” value on Aβ42 (after 3 days) was “No change”. The “conformation of Aβ12-28 (far UV-CD)” value on Aβ12-28 is reported as “strong α-helical conformation”. Also, the cell viability in data set [1] was 98±2%. In addition, in data set [1] (Aβ42 mediated cytotoxicity and aggregation, 5 μM, 1:1 (FIG. 26a)), the “rank order for the antagonist activity” value is “ADH41>ADH46>ADM-40≥ADM-45A”. Moreover, the “cell viability, preformed Aβ42 oligomers” value is 72% in data set [1] (setting [3]), 68% in data set [1] (setting [4]) and 67% in data set [1] (setting [5]). Besides, the “effect on Aβ42 mediated cytotoxicity” value in data set [1] is recorded as “completely inhibited; also recorded: effective at rescuing cells; also recorded: equally effective; also recorded: completely rescues”.

Source of the values: patent US10723716B2, “Alpha-helix mimetics as modulators of Abeta self-assembly” (New York University, priority 2016, dated 2020).
